11 molecules from patent US20240269139A1, “COMPOUNDS FOR TARGETED PROTEIN DEGRADATION OF KINASES” (DANA-FARBER CANCER INSTITUTE, INC., priority 2020, published 2024) can be followed below.

Read-outs that look alike come from different tables or passages of the source.

Assay type in all cases: cell-based
Experiment [1] addresses protein kinases (human kinome) (Homo sapiens, UniProt P54646). Particulars: for logFC: PRKAA2 (P54646).
Experiment [2] deals with protein kinases (human kinome) (Homo sapiens, UniProt Q9BYT3). The conditions noted are these: STK33 (Q9BYT3-1).
The target of experiment [3] is protein kinases (human kinome) (Homo sapiens, UniProt P23443). The conditions noted are these: for logFC: RPS6KB1 (P23443-1).
The target in experiment [4] is T1, protein kinases (human kinome) (Homo sapiens, UniProt O15197).
T1 sequence (O15197 32-1021): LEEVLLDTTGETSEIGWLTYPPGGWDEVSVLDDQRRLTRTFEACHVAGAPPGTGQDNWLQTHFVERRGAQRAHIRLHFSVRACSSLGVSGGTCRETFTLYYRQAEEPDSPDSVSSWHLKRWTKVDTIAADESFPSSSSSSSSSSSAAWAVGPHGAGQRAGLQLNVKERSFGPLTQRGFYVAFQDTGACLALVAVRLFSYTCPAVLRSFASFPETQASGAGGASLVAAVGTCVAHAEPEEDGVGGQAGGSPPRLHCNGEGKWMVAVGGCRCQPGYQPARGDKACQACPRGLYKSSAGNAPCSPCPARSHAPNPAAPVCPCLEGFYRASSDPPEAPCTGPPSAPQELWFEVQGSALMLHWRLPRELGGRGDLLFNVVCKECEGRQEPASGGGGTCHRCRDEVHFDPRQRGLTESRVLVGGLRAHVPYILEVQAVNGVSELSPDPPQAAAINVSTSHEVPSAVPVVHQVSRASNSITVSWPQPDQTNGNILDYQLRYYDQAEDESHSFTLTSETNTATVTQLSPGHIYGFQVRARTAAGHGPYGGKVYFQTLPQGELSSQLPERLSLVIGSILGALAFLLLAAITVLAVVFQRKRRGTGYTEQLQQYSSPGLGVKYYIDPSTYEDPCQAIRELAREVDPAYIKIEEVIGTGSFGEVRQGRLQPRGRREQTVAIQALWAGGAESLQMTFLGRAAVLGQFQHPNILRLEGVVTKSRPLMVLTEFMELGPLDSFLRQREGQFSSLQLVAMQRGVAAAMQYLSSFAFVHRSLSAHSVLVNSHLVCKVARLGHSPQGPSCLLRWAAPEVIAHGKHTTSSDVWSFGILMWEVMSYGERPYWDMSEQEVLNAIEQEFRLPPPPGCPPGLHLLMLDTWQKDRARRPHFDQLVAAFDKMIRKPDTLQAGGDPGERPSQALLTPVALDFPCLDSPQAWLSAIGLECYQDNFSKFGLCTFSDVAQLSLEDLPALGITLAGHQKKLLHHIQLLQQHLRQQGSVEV
Particulars: for logFC: EPHB6 (O15197-1).

Experiment [5] addresses T2, protein kinases (human kinome) (Homo sapiens, UniProt O95835).
T2 sequence (O95835 1-1130): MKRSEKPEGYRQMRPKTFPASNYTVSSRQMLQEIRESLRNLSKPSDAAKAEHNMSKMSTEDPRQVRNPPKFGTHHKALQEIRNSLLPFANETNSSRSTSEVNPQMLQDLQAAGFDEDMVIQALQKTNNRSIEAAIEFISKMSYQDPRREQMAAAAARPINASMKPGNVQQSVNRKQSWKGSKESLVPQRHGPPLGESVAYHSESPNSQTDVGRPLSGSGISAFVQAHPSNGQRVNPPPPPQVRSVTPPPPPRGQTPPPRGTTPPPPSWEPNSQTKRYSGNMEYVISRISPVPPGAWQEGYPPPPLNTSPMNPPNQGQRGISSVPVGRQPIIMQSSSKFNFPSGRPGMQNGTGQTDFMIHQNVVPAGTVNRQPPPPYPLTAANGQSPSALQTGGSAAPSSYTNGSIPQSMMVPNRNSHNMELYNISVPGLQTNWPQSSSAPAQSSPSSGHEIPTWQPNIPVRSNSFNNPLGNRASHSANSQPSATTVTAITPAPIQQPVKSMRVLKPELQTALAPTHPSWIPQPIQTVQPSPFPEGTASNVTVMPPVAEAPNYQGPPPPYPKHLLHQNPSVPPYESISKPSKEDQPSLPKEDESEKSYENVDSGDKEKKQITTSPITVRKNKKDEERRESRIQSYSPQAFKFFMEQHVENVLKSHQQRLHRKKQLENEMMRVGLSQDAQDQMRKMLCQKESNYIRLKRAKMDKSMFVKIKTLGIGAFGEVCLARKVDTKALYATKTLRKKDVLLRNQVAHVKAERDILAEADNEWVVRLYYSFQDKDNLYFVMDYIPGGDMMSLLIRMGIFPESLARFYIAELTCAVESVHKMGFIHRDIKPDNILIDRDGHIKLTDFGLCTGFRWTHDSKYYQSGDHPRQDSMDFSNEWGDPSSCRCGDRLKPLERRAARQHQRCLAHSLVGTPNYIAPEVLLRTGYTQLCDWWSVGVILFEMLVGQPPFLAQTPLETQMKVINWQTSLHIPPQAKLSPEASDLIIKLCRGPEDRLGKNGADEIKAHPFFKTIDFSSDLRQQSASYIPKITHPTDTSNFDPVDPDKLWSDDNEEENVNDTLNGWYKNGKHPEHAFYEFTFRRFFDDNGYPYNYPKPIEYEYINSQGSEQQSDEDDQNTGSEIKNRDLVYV
Particulars: LATS1 O95835.

Where [6] appears, read: experiment wp146, direction down.

Chain of protein kinases (human kinome) (Homo sapiens, UniProt P54646) (P54646 whole entry): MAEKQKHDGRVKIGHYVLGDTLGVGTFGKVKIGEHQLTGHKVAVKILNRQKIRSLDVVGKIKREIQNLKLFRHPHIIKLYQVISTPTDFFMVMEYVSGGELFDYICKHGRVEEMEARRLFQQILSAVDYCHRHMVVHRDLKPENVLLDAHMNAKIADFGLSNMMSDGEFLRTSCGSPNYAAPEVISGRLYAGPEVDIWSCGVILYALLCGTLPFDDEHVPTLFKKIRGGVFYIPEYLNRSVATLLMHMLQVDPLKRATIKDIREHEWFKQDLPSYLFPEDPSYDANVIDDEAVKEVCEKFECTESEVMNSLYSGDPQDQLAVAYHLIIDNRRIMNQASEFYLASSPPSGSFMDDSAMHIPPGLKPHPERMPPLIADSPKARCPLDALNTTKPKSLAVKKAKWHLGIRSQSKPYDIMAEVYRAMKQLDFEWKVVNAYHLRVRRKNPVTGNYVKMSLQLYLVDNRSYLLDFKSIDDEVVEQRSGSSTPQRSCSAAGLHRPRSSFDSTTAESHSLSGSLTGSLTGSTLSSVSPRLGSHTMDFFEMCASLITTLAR
Chain of protein kinases (human kinome) (Homo sapiens, UniProt Q9BYT3) (Q9BYT3 whole entry): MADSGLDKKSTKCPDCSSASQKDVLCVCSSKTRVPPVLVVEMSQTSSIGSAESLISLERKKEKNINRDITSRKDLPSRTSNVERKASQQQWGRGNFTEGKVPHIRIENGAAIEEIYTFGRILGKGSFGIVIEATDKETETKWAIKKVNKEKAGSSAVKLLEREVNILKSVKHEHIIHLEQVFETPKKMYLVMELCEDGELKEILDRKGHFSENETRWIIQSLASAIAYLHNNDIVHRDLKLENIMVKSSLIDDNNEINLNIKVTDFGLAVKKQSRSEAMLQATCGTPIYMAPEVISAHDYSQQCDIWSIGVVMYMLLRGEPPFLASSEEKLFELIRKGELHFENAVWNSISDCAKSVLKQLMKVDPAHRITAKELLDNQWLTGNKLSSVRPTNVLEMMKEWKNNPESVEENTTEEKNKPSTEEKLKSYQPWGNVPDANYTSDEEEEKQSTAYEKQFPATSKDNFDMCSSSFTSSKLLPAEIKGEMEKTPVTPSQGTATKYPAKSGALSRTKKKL
Chain of protein kinases (human kinome) (Homo sapiens, UniProt P23443) (P23443 whole entry): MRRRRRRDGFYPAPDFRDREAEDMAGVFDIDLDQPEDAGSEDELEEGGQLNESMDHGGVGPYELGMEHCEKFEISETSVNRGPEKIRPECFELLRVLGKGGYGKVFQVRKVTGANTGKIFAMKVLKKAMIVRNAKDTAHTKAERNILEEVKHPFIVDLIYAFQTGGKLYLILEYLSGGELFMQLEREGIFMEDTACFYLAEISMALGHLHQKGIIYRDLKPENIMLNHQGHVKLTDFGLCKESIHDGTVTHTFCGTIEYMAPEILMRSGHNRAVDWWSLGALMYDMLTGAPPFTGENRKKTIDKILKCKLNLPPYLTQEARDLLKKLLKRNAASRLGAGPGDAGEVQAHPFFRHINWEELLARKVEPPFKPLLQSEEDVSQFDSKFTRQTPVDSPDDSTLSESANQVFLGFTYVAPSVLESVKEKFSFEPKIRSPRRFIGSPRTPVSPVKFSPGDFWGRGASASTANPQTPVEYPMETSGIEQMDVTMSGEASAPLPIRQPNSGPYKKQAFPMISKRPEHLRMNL

For `Cc1cc(Nc2ncc(Br)c(Nc3cccc(F)c3C(N)=O)n2)ccc1S(=O)(=O)NCCOCCOCCOCCOCCNc1cccc2c1C(=O)N(C1CCC(=O)NC1=O)C2=O` (centres unmarked) [TMX.02.174], the logFC was −1.826 in experiment [1] (experiment wp146), −1.763 in experiment [2] (experiment wp146) and −1.763 in experiment [2] (setting [6]). The “logFC of PRKAA2 (P54646)” value in experiment [1] (experiment wp146) is listed as −1.826.

As to `Cc1cnc(Nc2ccc(N3CCN(CCCCCCC(=O)N[C@H](C(=O)N4C[C@H](O)C[C@H]4C(=O)N[C@@H](C)c4ccc(-c5scnc5C)cc4)C(C)(C)C)CC3)cc2)nc1Nc1cccc(S(=O)(=O)NC(C)(C)C)c1` [JWG.123], the “logFC of RPS6KB1 (P23443-1)” value in experiment [3] (Experiment wp195) was −0.3426. Besides, the logFC in experiment [3] (experiment wp195) was −0.3426.

Take `Cc1ccc(NC(=O)c2cccc(C(F)(F)F)c2)cc1N1Cc2cnc(Nc3ccc(N4CCN(Cc5cn(CCCCCOc6cccc7c6C(=O)N(C6CCC(=O)NC6=O)C7=O)nn5)CC4)nc3)nc2N(C)C1=O` (centres unmarked) [DB0646, N-(3-(7-((6-(4-((1-(5-((2-(2,6-Dioxopiperidin-3-yl)-1,3-dioxoisoindolin-4-yl)oxy)pentyl)-1H-1,2,3-triazol-4-yl)methyl)piperazin-1-v)pyridin-3-yl)amino)-1-methyl-2-oxo-1,4-dihydropyrimido[4,5-d]pyrimidin-3(2H)-yl)-4-methylphenyl)-3-(trifluoromethyl)benzamide]: in experiment [4] (experiment wp160, 4 hr), the logFC is listed as −0.3396 and the “logFC of EPHB6 (O15197-1)” value was −0.3396. Besides, in experiment [4] (experiment wp160, 8 hr), the logFC is recorded as −0.6548 and the “logFC of EPHB6 (O15197-1)” value was −0.6548. Besides, in experiment [5] (experiment wp160, 8 hr), the logFC was −0.3382 and the “logFC LATS1” value is −0.3382.

For `NC(=O)c1c(F)cccc1Nc1nc(Nc2ccc(S(=O)(=O)NCCOCCOCCOCCOCCNc3cccc4c3C(=O)N(C3CCC(=O)NC3=O)C4=O)cc2)ncc1Br` (centres unmarked) [TMX.02.138], the logFC in experiment [1] (experiment wp146) is recorded as −1.476; in experiment [2] (experiment wp146), −1.335; in experiment [2] (setting [6]), −1.335. Further, the “logFC of PRKAA2 (P54646)” value in experiment [1] (experiment wp146) is −1.476.

As for `Cc1ncsc1-c1ccc([C@H](C)NC(=O)[C@@H]2C[C@@H](O)CN2C(=O)[C@@H](NC(=O)CCCCCN2CCc3cc(Nc4ncc(C5CC5)c(NCCCNC(=O)C5CCC5)n4)ccc3C2)C(C)(C)C)cc1` [BSJ.05.026], the “logFC of RPS6KB1 (P23443-1)” value in experiment [3] (Experiment wp195) is given as −0.5629. Besides, the logFC in experiment [3] (experiment wp195) is recorded as −0.5629.

As for `Cc1ccc(NC(=O)c2cccc(C(F)(F)F)c2)cc1N1Cc2cnc(Nc3ccc(N4CCN(CCCOc5cccc6c5C(=O)N(C5CCC(=O)NC5=O)C6=O)CC4)nc3)nc2N(C)C1=O` (centres unmarked) [DB0662], the logFC in experiment [4] (experiment wp168) is −0.736. For the same molecule, in experiment [4] (Experiment wp168), the “logFC of EPHB6 (O15197-1)” value was −0.736.

Take `Nc1ncnc2c1c(-c1ccc(Oc3ccccc3)cc1)nn2[C@H]1CC[C@H](N2CCN(CCOCCNC(=O)CNc3cccc4c3C(=O)N(C3CCC(=O)NC3=O)C4=O)CC2)CC1` (some centres unmarked) [SB1.G.181]: in experiment [5] (experiment wp071), the logFC is reported as −1.273 and the “logFC LATS1” value is listed as −1.273.

With `CC(C)S(=O)(=O)c1ccccc1Nc1nc(Nc2ccc(N3CCN(CCOCCNC(=O)CNc4cccc5c4C(=O)N(C4CCC(=O)NC4=O)C5=O)CC3)cc2)ncc1Cl` (centres unmarked) [SK.3.91], in experiment [3] (Experiment wp107), the “logFC of RPS6KB1 (P23443-1)” value was −0.4197. Further, the logFC in experiment [3] (experiment wp107) is listed as −0.4197; in experiment [5] (experiment wp105), −0.3335; in experiment [5] (experiment wp107), −0.4609; in experiment [5] (experiment wp160, 4 hr), −0.3463; in experiment [1] (experiment wp105) it was −0.9029; in experiment [1] (experiment wp172), −0.926. In addition, the logFC in experiment [2] (experiment wp105) is −2.057; in experiment [2] (experiment wp105, direction down), −2.057; in experiment [2] (experiment wp172) it was −2.227; in experiment [2] (experiment wp172, direction down) it was −2.227. In addition, the “logFC LATS1” value in experiment [5] (experiment wp105) was −0.3335; in experiment [5] (experiment wp107), −0.4609; in experiment [5] (experiment wp160, 4 hr) it was −0.3463. Moreover, the “logFC of PRKAA2 (P54646)” value in experiment [1] (Experiment wp172) was −0.926; in experiment [1] (experiment wp105), −0.9029.

Take `CNC(=O)c1ccccc1Nc1cc(Nc2ccc(N3CCN(CCOCCOCCNC(=O)CNc4cccc5c4C(=O)N(C4CCC(=O)NC4=O)C5=O)CC3)cc2OC)ncc1C(F)(F)F` (centres unmarked) [MFH.5.103.1]: the logFC in experiment [2] (experiment wp076) is given as −2.784; in experiment [2] (experiment wp076, direction down), −2.784.

Take `Cc1ncsc1-c1ccc([C@H](C)NC(=O)[C@@H]2C[C@@H](O)CN2C(=O)[C@@H](NC(=O)CCCCCN2CCN(c3ccc(Nc4ncc5scc(-c6cccc(NS(C)(=O)=O)c6)c5n4)cc3)CC2)C(C)(C)C)cc1` [RSS0680, (2S,4R)-1-((S)-3,3-Dimethyl-2-(6-(4-(4-((7-(3-(methylsulfonamido)phenyl)thieno[3,2-d]pyrimidin-2-yl)amino)phenyl)piperazin-1-yl)hexanamido)butanoyl)-4-hydroxy-N—((S)-1-(4-(4-methylthiazol-5yl)phenyl)ethyl)pyrrolidine-2-carboxamide]: the “logFC of RPS6KB1 (P23443-1)” value in experiment [3] (Experiment wp117) was −0.3893; in experiment [3] (experiment wp080), −0.4358. The logFC is listed as −0.4358 in experiment [3] (experiment wp080), −0.3893 in experiment [3] (experiment wp117) and −0.4143 in experiment [5] (experiment wp117). The “logFC LATS1” value in experiment [5] (experiment wp117) is −0.4143.

With `Cn1c(=O)c(-c2c(Cl)cccc2Cl)cc2cnc(Nc3ccc(OCCNC(=O)CCCCCCNC(=O)COc4cccc5c4C(=O)N(C4CCC(=O)NC4=O)C5=O)cc3)nc21` (centres unmarked) [SB1.G.192.1], in experiment [4] (experiment wp071), the logFC was −0.6259 and the “logFC of EPHB6 (O15197-1)” value is reported as −0.6259. Besides, in experiment [4] (experiment wp131), the logFC is −0.5189 and the “logFC of EPHB6 (O15197-1)” value is listed as −0.5189.
